Common to all, as to assay type: cell-based
Experiment [1] deals with human malignant brain tumor cell line DBTRG. In words: tumor cell death, Annexin V-FITC/PI flow cytometry (cytotoxicity). The settings on record: group 1: chemotherapy drug alone, temozolomide 80 μg/mL, three independent trials. The procedure:
The cells were subsequently incubated for 48 hours. Each type of the tumor cells was divided into six groups. In a control, the tumor cells were untreated. In a group 1, the tumor cells were treated with the chemotherapy drug. In a group 2, the tumor cells were treated with the parental primary T lymphocyte. In a group 3, the tumor cells are treated with the parental primary T lymphocyte and the chemotherapy drug. In a group 4, the tumor cells were treated with Example 1. In a group 5, the tumor cells were treated with Example 1 and the chemotherapy drug. […] In the group 4 and the group 5, the number of Example 1 treated was 1×10^5 cells. […] The treated cells of each group were stained with Annexin V-FITC and propidium iodide (PI), and the apoptosis and the death of the tumor cells were detected by the flow cytometry. The sum of the percentage of cells stained with Annexin V-FITC and/or PI were calculated to obtain the cytotoxicity. The results of the cytotoxicity were counted after three independent trials in each group.
The cells were subsequently incubated for 48 hours. […] The treated cells of each group were stained with Annexin V-FITC and PI, and the apoptosis and the death of the tumor cells were detected by the flow cytometry. The sum of the percentage of cells stained with Annexin V-FITC and/or PI were calculated to obtain the cytotoxicity. […]
(In general: A flow cytometer gives signals particle by particle.)

Experiment [2] deals with BAG6 on the plasma membrane of the human breast cancer cell line MDA-MB-231. Nature of the experiment: expression level of BAG6, immunofluorescence staining and flow cytometry. The settings on record: doxorubicin 200 nM, 48 hours, versus untreated control. The procedure:
(§1) To explore whether treatment with the chemotherapy drug affects the expression of BAG6, HLA-G and B7-H6 on the cell membrane of tumor cells, the tumor cells used were human breast cancer cell line MDA-MB-231, human malignant brain tumor cell line DBTRG-05MG (hereinafter referred to as DBTRG), human pancreatic cancer cell line AsPC-1, and human ovarian cancer cell line SKOV3. The tumor cells used were all purchased from the American Type Culture Collection (ATCC). The human breast cancer cell line MDA-MB-231 is a triple-negative breast cancer cell line, that is, the hormone receptor (ER, PR) and HER-2 receptor thereof are negative, and the human breast cancer cell line MDA-MB-231 was cultured in RPMI culture medium including 10% fetal bovine serum (FBS). The human malignant brain tumor cell line DBTRG was cultured in DMEM culture medium including 10% FBS. The human pancreatic cancer cell line AsPC-1 was cultured in RPMI culture medium including 10% FBS. The human ovarian cancer cell line SKOV3 was cultured in McCoy's 5A culture medium including 10% FBS.

In experiment [3] the test system is HLA-G on the plasma membrane of the human breast cancer cell line MDA-MB-231. In words: expression level of HLA-G, flow cytometry. The settings on record: doxorubicin 200 nM, 48 hours, versus untreated control. Here is the method: as §1
The test system of experiment [4] is B7-H6 on the plasma membrane of the human breast cancer cell line MDA-MB-231. Nature of the experiment: expression level of B7-H6, flow cytometry. Conditions: doxorubicin 200 nM, 48 hours, versus untreated control. The procedure: as §1
In experiment [5] the test system is BAG6 on the plasma membrane of the human ovarian cancer cell line SKOV3. In words: expression level of BAG6, immunofluorescence staining and flow cytometry. The settings on record: carboplatin 20 μM, 48 hours, versus untreated control. Here is the method:
as §1

Experiment [6] has as its system HLA-G on the plasma membrane of the human ovarian cancer cell line SKOV3. In words: expression level of HLA-G, flow cytometry. Conditions: carboplatin 20 μM, 48 hours, versus untreated control. Here is the method:
as §1

Experiment [7] concerns B7-H6 on the plasma membrane of the human ovarian cancer cell line SKOV3. In words: expression level of B7-H6, flow cytometry. Conditions: carboplatin 20 μM, 48 hours, versus untreated control. The procedure: as §1

Values joined by “and” are separate entries in the source; they are usually repeats but may differ in a detail not shown here. Equal entries are not always repeated.

In the case of `Cn1nnc2c(C(N)=O)ncn2c1=O` [temozolomide], in experiment [1], the death rate is 8.4033% and 14.9267% and 5.5450% and 11.7933% and 13.9750%.

As for `COc1cccc2c1C(=O)c1c(O)c3c(c(O)c1C2=O)C[C@@](O)(C(=O)CO)C[C@@H]3O[C@H]1C[C@H](N)[C@H](O)[C@H](C)O1` [doxorubicin], the “expression of BAG6 on the plasma membrane” value in experiment [2] is “increase the expression of BAG6”. In experiment [3], the “expression of HLA-G on the plasma membrane” value was “increase the expression of HLA-G”. The “expression of B7-H6 on the plasma membrane” value in experiment [4] was “increase the expression of B7-H6”.

For the molecule `N.N.O=C([O-])C1(C(=O)[O-])CCC1.[Pt+2]` [carboplatin], the “expression of BAG6 on the plasma membrane” value in experiment [5] is given as “increase the expression of BAG6”. Besides, the “expression of HLA-G on the plasma membrane” value in experiment [6] is “increase the expression of HLA-G”. In addition, the “expression of B7-H6 on the plasma membrane” value in experiment [7] is reported as “increase the expression of B7-H6”.
